The test system of assay [1] is CD4+ and CD8+ splenocytes. Set-up: species or system BALB/c mice. The settings on record: mouse, in vivo.
In a further assay the test system is Mouse spleen cells. The assay can be described thus: In vitro cytokine assay: IFN-γ ELISA of spleen cell culture supernatants. The assay is classed as in vivo. Particulars: spleen cells cultured with p7g peptide, 24 hours; limit of detection 5 pg/ml; FIG. 3. As for the experimental part: In vitro cytokine assay. Mouse spleen cells were cultured with p7g peptides in parallel with the ELISpot assays. Culture supernatants were collected 24 hours after addition of peptide, and the concentrations of gamma interferon (IFN-γ) were determined by enzyme-linked immunosorbent assay (ELISA). Briefly, anti-mouse IFN-γ (R46A2; monoclonal antibody, Pharmingen) was diluted in coating buffer (pH 9.6) and coated (1 μg protein/well) onto 96-well enzyme-linked immunosorbent assay (ELISA) plates (Nunc Immunoplates; Nunc. Corp., Naperville, Ill.) by overnight incubation at 4° C. The plates were washed six times in wash buffer, then blocked with PBS containing 0.05% Tween 20 (Sigma), 1% low-fat dry milk (Carnation; Nestle Food Corp., Glendale, Calif.), and 4% goat serum (KPL Laboratories, Gaithersburg, Md.) for 1 hour. After washing, each plate was incubated with samples diluted in PBS containing 1% BSA and 0.05% Tween 20 for 1 hour. The plates were then incubated with rabbit anti-mouse IFN-γ (Cytlmmune Sciences, Inc. College, Md.) diluted 1:1000 in the same PBS solution for 1 hour and washed again six times. […] The bound mouse IFN-γ was quantitated by calorimetric reaction using p-nitrophenyl phosphate as a substrate (KPL Laboratories). The optical density (OD) was measured at 405 nm in a Bio-Tek Plate Reader (Winooski, Vt.). […]
On the technique in general: ELISA stands for enzyme-linked immunosorbent assay.

Assay [2] has as its system human amyloid β amino acid residues 1-42 (Aβ42 peptide). The assay can be described thus: Antibody titer to Aβ42 peptide in vaccinated mice. Format: in vivo. Particulars: 100 μg Aβ42 peptide per injection s.c., day 0 and day 14; FIG. 5. As to the method: Mice were immunized with 100 μg Aβ42 peptide per injection. Aβ42 in PBS alone was injected as control. Mice were primed s.c. on day 0 and boosted on day 14. Detection used goat anti-mouse immunoglobulin conjugated to alkaline phosphatase and p-nitrophenyl phosphate.

Assay [3] relates to R5 and dual-tropic (R5/X4) HIV-1 strains. The settings on record: monocyte-derived macrophages, microglia, primary CD4(+) T cells; cited from earlier work.
Another assay has as its target CD4 receptor (Homo sapiens, UniProt P01730). The settings on record: in vitro; cited from earlier work.

The values below come from patent publication US20030049253A1, “Polymeric conjugates for delivery of MHC-recognized epitopes via peptide vaccines” (priority 2001, published 2003).

Regarding AMQMLKETI [free p7g peptide], the “CTL response and INF-γ expression (intracellular staining, flow cytometry)” value in assay [1] was “no CTL or INF-γ expression”. Further, the “concentration of IFN-γ in culture supernatants (ELISA)” value with Mouse spleen cells is “no measurable IFN-γ”.

With Aβ42 peptide alone, the “antibody titer to Aβ42 peptide” value in assay [2] is “no detectable anti-peptide antibody”.

As for Aβ42 peptide linked to HA, the “antibody titer to Aβ42 peptide” value in assay [2] is “substantial”.

For AS TTTNYT [Peptide T], the “replication of HIV-1 strains” value in assay [3] was “inhibits replication”. Moreover, at CD4 receptor, the “binding of isolated gp120 and HIV-1 to the CD4 receptor” value is on record as “inhibition of the binding”.
